Test results published in article PMC8480901 (PLoS ONE, 2021).
Where “and” joins values, the source holds several entries; their conditions need not be identical. Equal values may be shown once.

Tested on: human PBMCs
Test: LPS-induced cytokine and chemokine levels in human PBMC supernatant (Luminex, ELISA)
Type: cell-based
Details: for CCl2, % reduction / CXCL1 % reduction / CXCL2 % reduction / MMP9 % reduction / CCl2, Mean / CXCL1, Mean / CXCL2, Mean / MMP9, Mean / CCl2, individual value / CXCL1, individual value / CXCL2, individual value / MMP9, individual value: LPS-stimulated PBMC supernatant; for CCl2, Mean / CXCL1, Mean / CXCL2, Mean / MMP9, Mean: sample size 2; for CCl2, individual value / CXCL1, individual value / CXCL2, individual value / MMP9, individual value: single replicate
[1] = LPS-stimulated human PBMC supernatant, 0.03 µM

C=C[C@]1(C)C[C@@H](OC(=O)CS[C@@H]2CC[C@@H](N)C[C@H]2O)[C@]2(C)[C@H](C)CC[C@]3(CCC(=O)[C@H]32)[C@@H](C)[C@@H]1O [Lefamulin]
CCl2, % reduction (0.03 µM): -3.52% | CXCL1 % reduction (0.03 µM): -11% | CXCL2 % reduction (0.03 µM): -3% | MMP9 % reduction (0.03 µM): -7% | CCl2, Mean (0.03 µM): 1309 pg/mL | CXCL1, Mean (0.03 µM): 6607 pg/mL | CXCL2, Mean (0.03 µM): 5213 pg/mL | MMP9, Mean (0.03 µM): 3113 pg/mL | CCl2, individual value (0.03 µM): 1274 pg/mL and 1344 pg/mL | CXCL1, individual value (0.03 µM): 6599 pg/mL and 6616 pg/mL | CXCL2, individual value (0.03 µM): 5117 pg/mL and 5308 pg/mL | MMP9, individual value (0.03 µM): 3135 pg/mL and 3092 pg/mL | CCl2, % reduction (0.1 µM): -1% | CXCL1 % reduction (0.1 µM): -3% | CXCL2 % reduction (0.1 µM): 3% | MMP9 % reduction (0.1 µM): 6% | CCl2, Mean (0.1 µM): 1279 pg/mL | CXCL1, Mean (0.1 µM): 6126 pg/mL | CXCL2, Mean (0.1 µM): 4904 pg/mL | MMP9, Mean (0.1 µM): 2899 pg/mL | CCl2, individual value (0.1 µM): 1178 pg/mL and 1379 pg/mL | CXCL1, individual value (0.1 µM): 5750 pg/mL and 6502 pg/mL | CXCL2, individual value (0.1 µM): 4854 pg/mL and 4955 pg/mL | MMP9, individual value (0.1 µM): 2852 pg/mL and 2946 pg/mL | CCl2, % reduction (0.3 µM): -8% | CXCL1 % reduction (0.3 µM): -11% | CXCL2 % reduction (0.3 µM): -1.83% | MMP9 % reduction (0.3 µM): -13% | CCl2, Mean (0.3 µM): 1360 pg/mL | CXCL1, Mean (0.3 µM): 6577 pg/mL | CXCL2, Mean (0.3 µM): 5150 pg/mL | MMP9, Mean (0.3 µM): 3213 pg/mL | CCl2, individual value (0.3 µM): 1440 pg/mL and 1281 pg/mL | CXCL1, individual value (0.3 µM): 6950 pg/mL and 6204 pg/mL | CXCL2, individual value (0.3 µM): 5157 pg/mL and 5144 pg/mL | MMP9, individual value (0.3 µM): 3328 pg/mL and 3097 pg/mL | CCl2, % reduction (1 µM): -4.42% | CXCL1 % reduction (1 µM): -4.56% | CXCL2 % reduction (1 µM): 2.67% | MMP9 % reduction (1 µM): -10% | CCl2, Mean (1 µM): 1320 pg/mL | CXCL1, Mean (1 µM): 6222 pg/mL | CXCL2, Mean (1 µM): 4923 pg/mL | MMP9, Mean (1 µM): 3154 pg/mL | CCl2, individual value (1 µM): 1176 pg/mL and 1464 pg/mL | CXCL1, individual value (1 µM): 5695 pg/mL and 6750 pg/mL | CXCL2, individual value (1 µM): 4726 pg/mL and 5120 pg/mL | MMP9, individual value (1 µM): 3230 pg/mL and 3077 pg/mL | CCl2, % reduction (3 µM): -29% | CXCL1 % reduction (3 µM): -12% | CXCL2 % reduction (3 µM): -3.75% | MMP9 % reduction (3 µM): -3% | CCl2, Mean (3 µM): 1626 pg/mL | CXCL1, Mean (3 µM): 6685 pg/mL | CXCL2, Mean (3 µM): 5247 pg/mL | MMP9, Mean (3 µM): 3044 pg/mL | CCl2, individual value (3 µM): 1606 pg/mL and 1647 pg/mL | CXCL1, individual value (3 µM): 6614 pg/mL and 6757 pg/mL | CXCL2, individual value (3 µM): 5389 pg/mL and 5104 pg/mL | MMP9, individual value (3 µM): 3098 pg/mL and 2991 pg/mL | CCl2, % reduction (10 µM): -40% | CXCL1 % reduction (10 µM): -16% | CXCL2 % reduction (10 µM): 2.3% | MMP9 % reduction (10 µM): 13% | CCl2, Mean (10 µM): 1763 pg/mL | CXCL1, Mean (10 µM): 6870 pg/mL | CXCL2, Mean (10 µM): 4942 pg/mL | MMP9, Mean (10 µM): 2781 pg/mL | CCl2, individual value (10 µM): 1714 pg/mL and 1811 pg/mL | CXCL1, individual value (10 µM): 6794 pg/mL and 6946 pg/mL | CXCL2, individual value (10 µM): 4972 pg/mL and 4912 pg/mL | MMP9, individual value (10 µM): 2867 pg/mL and 2696 pg/mL | CCl2, % reduction (30 µM): 8% | CXCL1 % reduction (30 µM): 7% | CXCL2 % reduction (30 µM): 6% | MMP9 % reduction (30 µM): 27% | CCl2, Mean (30 µM): 1163 pg/mL | CXCL1, Mean (30 µM): 5540 pg/mL | CXCL2, Mean (30 µM): 4765 pg/mL | MMP9, Mean (30 µM): 2563 pg/mL | CCl2, individual value (30 µM): 1184 pg/mL and 1143 pg/mL | CXCL1, individual value (30 µM): 5594 pg/mL and 5487 pg/mL | CXCL2, individual value (30 µM): 4928 pg/mL and 4603 pg/mL | MMP9, individual value (30 µM): 2485 pg/mL and 2640 pg/mL | CCl2, % reduction (100 µM): 92% | CXCL1 % reduction (100 µM): 73% | CXCL2 % reduction (100 µM): 2.31% | MMP9 % reduction (100 µM): 11% | CCl2, Mean (100 µM): 141 pg/mL | CXCL1, Mean (100 µM): 1638 pg/mL | CXCL2, Mean (100 µM): 4941 pg/mL | MMP9, Mean (100 µM): 2809 pg/mL | CCl2, individual value (100 µM): 141 pg/mL | CXCL1, individual value (100 µM): 1562 pg/mL and 1715 pg/mL | CXCL2, individual value (100 µM): 4788 pg/mL and 5094 pg/mL | MMP9, individual value (100 µM): 2812 pg/mL and 2806 pg/mL | GM-CSF % reduction [1]: -7% | GM-CSF [pg/mL], Mean [1]: 705 pg/mL | GM-CSF [pg/mL], individual value [1]: 721 pg/mL and 689 pg/mL | IL-1β % reduction [1]: -4.62% | IL-1β [pg/mL], Mean [1]: 13375 pg/mL | IL-1β [pg/mL], individual value [1]: 13502 pg/mL and 13249 pg/mL | IL-6 % reduction [1]: 9% | IL-6 [pg/mL], Mean [1]: 31710 pg/mL | IL-6 [pg/mL], individual value [1]: 32710 pg/mL and 30710 pg/mL | IL-8 % reduction [1]: -7% | IL-8 [pg/mL], Mean [1]: 3113 pg/mL | IL-8 [pg/mL], individual value [1]: 3135 pg/mL and 3092 pg/mL
